Results on 56 compounds are retold here after the OPERA property sets (Mansouri et al. 2018).

Settings in one data set: not given
The compound `Oc1ccc(Nc2ccc(O)cc2)cc1` showed a melting point of 174 °C.

With `CC(/C=C/C=C(\C)C(=O)O[C@@H]1O[C@H](CO[C@@H]2O[C@H](CO)[C@@H](O)[C@H](O)[C@H]2O)[C@@H](O)[C@H](O)[C@H]1O)=C\C=C\C=C(C)\C=C\C=C(/C)C(=O)O[C@@H]1O[C@H](CO[C@@H]2O[C@H](CO)[C@@H](O)[C@H](O)[C@H]2O)[C@@H](O)[C@H](O)[C@H]1O`, the melting point amounted to 186 °C.

For `OC(CCN1CCCCC1)(c1ccccc1)C1CC2C=CC1C2` (configuration not stated), the melting point was determined as 114 °C. In turn, `O=c1[nH]c2c(c(=O)n1C1CCCCC1)CCC2` returned a log10 Koc (L/kg) of 2.14, a log10 vapour pressure (mmHg) of -8.82 and a melting point of 316 °C. In the same order, the values of `CCSc1nc(NC(C)C)nc(NC(C)C)n1` are 3.07, -5.8 and 105 °C.

For the compound `O=S(=O)(Cl)c1ccc(Br)cc1`, the melting point worked out at 76 °C. `COC(=O)CCO` displayed a boiling point of 179 °C. The compound `CCCCCCCCCCCCCCCCCCC(C)c1ccccc1` (configuration not stated) yielded a melting point of 29 °C. On the same count and under the same terms, with `Cc1cc(O)cc(Br)c1` the figure was 56.5 °C. For the compound `Nc1ccc([N+](=O)[O-])c2c1C(=O)c1c(Cl)ccc(Cl)c1C2=O`, the log10 vapour pressure (mmHg) is -12.4 and the melting point turned out to be 307 °C.

`CCCCOC(=O)CCCCCCCCC(=O)OCCCC` showed a boiling point of 344 °C, a log10 vapour pressure (mmHg) of -5.33 and a melting point of -10 °C.

Take `FCCCl`: the boiling point is 53.1 °C and the melting point was -50 °C. Compound `C#CC(C)(C)NC(=O)c1ccc(F)cc1` displayed a log10 Koc (L/kg) of 1.68. `CC(C)F` gave a boiling point of -10 °C. On to `C1=COCC1`, for which the boiling point stood at 54.5 °C and the log10 vapour pressure (mmHg) turned out to be 2.4. Regarding `CNCCc1ccc(O)c(O)c1`, the melting point stood at 188 °C. `CC(=O)c1cccc(C(F)(F)F)c1` returned a boiling point of 199 °C. Turning to `NC1CCCC1`, the boiling point amounted to 108 °C and the melting point was -82.7 °C.

Take `CCOc1cccc(C)c1`: the boiling point came out at 192 °C. As for `C[N+]1([O-])[C@@H]2C[C@@H](OC(=O)[C@H](CO)c3ccccc3)C[C@H]1[C@@H]1O[C@@H]12` (some centres not stated), the melting point turned out to be 80 °C.

The compound `COc1cc(C=O)ccc1O[C@@H]1O[C@H](CO)[C@@H](O)[C@H](O)[C@H]1O` displayed a melting point of 189 °C. Regarding `ClCc1ccccc1`, the boiling point worked out at 179 °C, the log10 vapour pressure (mmHg) stood at 0.0899, the melting point is -45 °C and the ready biodegradability entry is “readily biodegradable”. In turn, `Fc1ccccc1Cl` came in with a boiling point of 138 °C and a melting point of -43 °C.

`CCCCBr` displayed a boiling point of 101 °C, a log10 vapour pressure (mmHg) of 1.62 and a melting point of -112 °C.

As for `CC(=O)OCC#N`, the boiling point was found to be 200 °C.

In the case of `c1ccc(OP(Oc2ccccc2)Oc2ccccc2)cc1`, the boiling point came to 360 °C and the melting point was determined as 25 °C. On to `CCCCC[C@H](O)/C=C/[C@@H]1[C@@H](C/C=C\CCCC(=O)O)[C@@H](O)C[C@H]1O`, for which the melting point is 30 °C. `ClCC(Cl)=C(Cl)Cl` returned a boiling point of 167 °C and a log10 vapour pressure (mmHg) of 0.428. Regarding `Nc1c([N+](=O)[O-])ccc(Oc2ccccc2)c1Cl`, the log10 vapour pressure (mmHg) is -6.92 and the melting point amounted to 81.5 °C. Consider `NCCCCCCCCN`, for which the boiling point came to 225 °C, the melting point was determined as 52 °C and the ready biodegradability result is reported as “readily biodegradable”.

The compound `CC1CCCCN1CCCOC(=O)c1ccc(Cl)c(Cl)c1` (configuration not stated) gave a log10 Koc (L/kg) of 3.7. Regarding `CCC(C)CC(C)(C)CC` (configuration not stated), the boiling point turned out to be 156 °C.

In the case of `O=Cc1cccc(Cl)c1`, the boiling point amounted to 214 °C and the melting point stood at 17.5 °C.

`N#CCc1ccccc1Cl` displayed a boiling point of 251 °C and a melting point of 24 °C. Compound `CC(C)(C)C(=O)OCC(=O)[C@@]1(O)CC[C@H]2[C@@H]3CCC4=CC(=O)C=C[C@]4(C)[C@H]3[C@@H](O)C[C@@]21C` displayed a melting point of 233 °C. On the same count and under the same terms, the value for `O=C1CN(N=Cc2ccc(-c3ccc([N+](=O)[O-])cc3)o2)C(=O)N1` was 280 °C; that for `FC(F)(F)c1nc2c(Cl)c(Cl)ccc2[nH]1` was 214 °C. Regarding `C=COC(=O)C=C`, the boiling point was determined as 91 °C. `COC(=O)Nc1nc2ccc(C(=O)c3ccc(F)cc3)cc2[nH]1`: the melting point amounted to 260 °C. The compound `CCC(C)(CC)OC(N)=O` yielded a log10 vapour pressure (mmHg) of -0.155 and a melting point of 56 °C. Consider `C=C(C)CC(C)=O`, for which the boiling point was 124 °C, the log10 vapour pressure (mmHg) came to 1.18 and the melting point is -72.6 °C. In turn, `CC(C)=CCC[C@@H](C)C1=C(O)C(=O)C(C)=CC1=O` returned a melting point of 104 °C.

As to `CCCCCCCCCCCCOCCCCCCCCCCCC`, the ready biodegradability result is recorded as “readily biodegradable”. In turn, `CCC(C)CC(C)C(C)C` (configuration not stated) had a boiling point of 161 °C. `ClCc1cc(Cl)cc(Cl)c1` displayed a melting point of 36 °C. `C=C[C@H]1CNCC[C@H]1CCC(=O)c1ccnc2ccc(OC)cc12` returned a melting point of 60 °C.

`COC(C)C` registered a boiling point of 30.7 °C and a log10 vapour pressure (mmHg) of 2.78. Turning to `COC(=O)CC(=O)C(C)(C)C`, the ready biodegradability result is reported as “not readily biodegradable”. In the case of `C/C=C/CCCO`, the boiling point amounted to 159 °C.

Still in this data set, the particulars now being: fish.
As to `Oc1ccc(-c2ccccc2)cc1`, the log10 BCF was 1.59 and the log10 biotransformation half-life (days) is -0.81. The like results for `CC(Cl)CCl` (configuration not stated) were, in that order, 0.85 and -1.06. In the same order, the values of `CCN(CC)C(=O)SCc1ccc(Cl)cc1` are 2.23 and 0.66. Regarding `C=C(C)CCCCCCCCCC`, the log10 biotransformation half-life (days) came to 0.64. The same measure, in the same setting: with `Clc1cc(Cl)c(Cl)c(-c2ccccc2Cl)c1` the figure was 2.8.

As for `C=C(CCCC)CCCCCCCC`, the log10 biotransformation half-life (days) amounted to 0.88. `CCCCC(CC)COP(=O)(Oc1ccccc1)Oc1ccccc1` (configuration not stated) gave a log10 BCF of 2.49 and a log10 biotransformation half-life (days) of -0.15.
